What was measured:
[1] = Transformation in presence of light; format: physicochemical
Description: The improved stability of vitamin K1 oxide compared to vitamin K1, reduces also unexpectedly the side effects of a cosmetic composition. […] Such transformation of vitamin K1 oxide is not observed in the presence of light and these side effects are not present when the cosmetic composition according to the invention is applied upon mammal skin.

[2] = Formation of chromophoric group on mixing with retinol; format: physicochemical; conditions: mixing with retinol (or retinol palmitate)

Compound | transformation into Menadione (vitamin K3) and 1.4.Naphtoquinone [1] | formation of chromophoric group [2]
CC(=CCC12OC1(C)C(=O)c1ccccc1C2=O)CCCC(C)CCCC(C)CCCC(C)C (stereo not drawn) [vitamin K1 oxide] | not observed | does not allow the formation of chromophoric group
CC1=C(C/C=C(\C)CCC[C@H](C)CCC[C@H](C)CCCC(C)C)C(=O)c2ccccc2C1=O [vitamin K1, 2-methyl 3-phytyl-1,4-naphtoquinone] | transformed into Menadione (vitamin K3) and 1.4.Naphtoquinone | –

— US7939568B2, “Use of a composition comprising vitamin K1 oxide or a derivative thereof for the treatment and/or the prevention of mammal dermatological lesions” (Auriga International S.A., priority 2003, dated 2011)
